In one data set the target is T1, F508del (Homo sapiens, UniProt P13569, DEL508-508).
T1 construct: expressed in transfected cells; host or cells: NIH3T3 mouse fibroblasts
Description: 3T3 Assay: membrane potential optical assay for F508del correctors in NIH 3T3 cells. The data set is classed as cell-based. Particulars: for EC50: F508del corrector assay; for Emax: NIH3T3, F508del corrector assay, read-out: 3T3 Max Activity. The text has this: The assay utilizes fluorescent voltage sensing dyes to measure changes in membrane potential using a fluorescent plate reader (e.g., FLIPR III, Molecular Devices, Inc.) as a readout for increase in functional F508del in NIH 3T3 cells. The driving force for the response is the creation of a chloride ion gradient in conjunction with channel activation by a single liquid addition step after the cells have previously been treated with compounds and subsequently loaded with a voltage sensing dye.
To identify correctors of F508del, a single-addition HTS assay format was developed. This HTS assay utilizes fluorescent voltage sensing dyes to measure changes in membrane potential on the FLIPR III as a measurement for increase in gating (conductance) of F508del in F508del NIH 3T3 cells. The F508del NIH 3T3 cell cultures were incubated with the corrector compounds at a range of concentrations for 18-24 hours at 37° C., and subsequently loaded with a redistribution dye. The driving force for the response is a Cl^− ion gradient in conjunction with channel activation with forskolin in a single liquid addition step using a fluorescent plate reader such as FLIPR III.
Bath Solution #1: (in mM) NaCl 160, KCl 4.5, CaCl2) 2, MgCl2 1, HEPES 10, pH 7.4 with NaOH.
Chloride-free bath solution: Chloride salts in Bath Solution #1 (above) are substituted with gluconate salts.
NIH3T3 mouse fibroblasts stably expressing F508del are used for optical measurements of membrane potential. The cells are maintained at 37° C. in 5% CO2 and 90% humidity in Dulbecco's modified Eagle's medium supplemented with 2 mM glutamine, 10% fetal bovine serum, 1×NEAA, b-ME, 1× pen/strep, and 25 mM HEPES in 175 cm^2 culture flasks. For all optical assays, the cells were seeded at ˜20,000/well in 384-well matrigel-coated plates. For the correction assays, the cells are cultured at 37° C. with and without compounds for 16-24 hours.

The target in data set [1] is T2, CFTR (Homo sapiens, UniProt P13569). Description: Membrane Potential Dye, Enteroid Assay A. The data set is classed as cell-based. Conditions: for EC50: read-out: Ent. A EC50.
For data set [2] the following is noted: from Cc1cccc(C)c1-c1nc(NS(=O)(=O)c2cccc(C(=O)O)c2)nc(OC[C@H](N)CC(C)C)c1OC(C)C; amide bond; 13-membered ring; HATU/Et3N; DMF; 12.0 mM; 0.5 h; 2 steps.
In data set [3] the target is T2, CFTR. Description: Membrane Potential Dye, Enteroid Assay B. Type of data set: cell-based. The method, boiled down:
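Human intestinal enteroids seeded at 5000 cells/well, treated with compound 18-24 h at 37 °C, then loaded 25 min with methyl oxonol membrane-potential dye plus CaCC blockers. Chloride transport started in chloride-free buffer with 10 μM forskolin, 100 μM IBMX and 300 nM Compound III, read 15 min; expressed as % of triple-combination control.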

A word on the EC50: it is the midpoint of the concentration-response curve.

T1 sequence (P13569 with tags, fused parts or gaps DEL508-508): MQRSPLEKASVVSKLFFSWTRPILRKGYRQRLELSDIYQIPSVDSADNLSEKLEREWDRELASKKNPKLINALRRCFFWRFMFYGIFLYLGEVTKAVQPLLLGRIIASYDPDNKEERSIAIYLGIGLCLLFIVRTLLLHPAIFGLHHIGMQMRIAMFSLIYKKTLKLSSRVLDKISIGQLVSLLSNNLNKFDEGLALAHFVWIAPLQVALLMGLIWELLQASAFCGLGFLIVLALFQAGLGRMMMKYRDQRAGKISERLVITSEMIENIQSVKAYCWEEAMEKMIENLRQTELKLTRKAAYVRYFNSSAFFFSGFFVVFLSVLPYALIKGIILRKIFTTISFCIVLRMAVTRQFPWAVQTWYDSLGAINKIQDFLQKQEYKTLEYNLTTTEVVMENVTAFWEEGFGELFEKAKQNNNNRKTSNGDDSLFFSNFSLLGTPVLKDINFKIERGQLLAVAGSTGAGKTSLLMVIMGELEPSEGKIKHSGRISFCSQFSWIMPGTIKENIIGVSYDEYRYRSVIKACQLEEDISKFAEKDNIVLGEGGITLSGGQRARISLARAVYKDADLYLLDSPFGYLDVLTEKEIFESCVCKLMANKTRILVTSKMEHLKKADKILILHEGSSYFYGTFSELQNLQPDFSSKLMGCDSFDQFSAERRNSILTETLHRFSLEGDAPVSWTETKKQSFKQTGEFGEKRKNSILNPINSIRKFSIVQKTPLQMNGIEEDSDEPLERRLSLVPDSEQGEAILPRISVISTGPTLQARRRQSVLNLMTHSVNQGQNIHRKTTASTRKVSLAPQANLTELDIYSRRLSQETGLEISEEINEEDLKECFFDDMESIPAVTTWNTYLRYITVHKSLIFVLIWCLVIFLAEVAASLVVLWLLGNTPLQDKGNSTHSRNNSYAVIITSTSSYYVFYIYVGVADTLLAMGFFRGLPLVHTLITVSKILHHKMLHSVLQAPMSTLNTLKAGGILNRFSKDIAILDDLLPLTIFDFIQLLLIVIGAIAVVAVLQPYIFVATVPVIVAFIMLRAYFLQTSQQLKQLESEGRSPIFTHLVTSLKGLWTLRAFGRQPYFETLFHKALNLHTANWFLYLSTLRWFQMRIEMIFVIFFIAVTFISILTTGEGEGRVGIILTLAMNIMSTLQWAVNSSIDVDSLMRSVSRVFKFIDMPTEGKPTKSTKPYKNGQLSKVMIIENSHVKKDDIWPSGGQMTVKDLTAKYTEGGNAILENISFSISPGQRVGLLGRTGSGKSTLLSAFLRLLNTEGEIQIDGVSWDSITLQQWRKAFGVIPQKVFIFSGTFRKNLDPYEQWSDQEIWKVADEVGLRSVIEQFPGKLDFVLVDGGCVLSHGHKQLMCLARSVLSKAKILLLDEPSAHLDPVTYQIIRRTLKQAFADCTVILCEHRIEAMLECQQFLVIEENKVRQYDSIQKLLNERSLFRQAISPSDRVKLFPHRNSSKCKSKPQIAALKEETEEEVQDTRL
T2 sequence (P13569 with tags, fused parts or gaps DEL508-508): as above

Take `CCc1c2nc(nc1-c1cccc(C)c1C)NS(=O)(=O)c1cccc(c1)NC(=O)c1cccc(c1)O2` [Compound 17]: at F508del, the EC50 is below 1000 nM and the Emax is above 60%.

`CCc1c2nc(nc1-c1ccccc1OCC(C)C)NS(=O)(=O)c1cccc(c1)NC(=O)c1cccc(c1)O2` [Compound 26]: at CFTR [1], the “Ent. A Max Activity” value is given as “+ (+ is <30%)” and the EC50 is 1000 to 3000 nM. Moreover, on F508del, the EC50 is below 1000 nM and the Emax is above 60%.

For the compound `CCc1c2nc(nc1-c1ccccc1CC(C)C)NS(=O)(=O)c1cccc(c1)NC(=O)c1cccc(c1)O2` [Compound 3, 4-Ethyl-5-(2-isobutylphenyl)-9,9-dioxo-2-oxa-9λ^6-thia-6,8,15,23-tetrazatetracyclo[15.3.1.13,7.110,14]tricosa-1(21),3,5,7(23),10,12,14(22),17,19-nonaen-16-one], at CFTR [1], the “Ent. A Max Activity” value was “+++ (+++ is >60%)” and the EC50 was below 1000 nM. At F508del, the EC50 is below 1000 nM and the Emax was above 60%.

For `CCc1c2nc(nc1-c1ccccc1C(C)C)NS(=O)(=O)c1cccc(c1)NC(=O)c1cccc(c1C)O2` [Compound 15], at CFTR [1], the “Ent. A Max Activity” value is listed as “+++ (+++ is >60%)” and the EC50 is below 1000 nM. Moreover, at F508del, the EC50 was below 1000 nM and the Emax is above 60%.

As to `CCc1c2nc(nc1-c1ccccc1COC)NS(=O)(=O)c1cccc(c1)NC(=O)c1cccc(c1)O2` [Compound 12], at F508del, the EC50 is below 1000 nM and the Emax was above 60%.

Take `CCc1c2nc(nc1-c1ccccc1COCCOC)NS(=O)(=O)c1cccc(c1)NC(=O)c1cccc(c1)O2` [Compound 11]: at F508del, the EC50 was below 1000 nM and the Emax was above 60%.

As to `CCc1c2nc(nc1-c1ccccc1C(C)C)NS(=O)(=O)c1cccc(c1)NC(=O)c1cc(ccc1Cl)O2` [Compound 5, 18-Chloro-4-ethyl-5-[2-(propan-2-yl)phenyl]-2-oxa-9λ^6-thia-6,8,15,23-tetraazatetracyclo[15.3.1.13,7.110,14]tricosa-1(20),3(23),4,6,10(22),11,13,17(21),18-nonaene-9,9,16-trione], at CFTR [1], the “Ent. A Max Activity” value is given as “+++ (+++ is >60%)” and the EC50 is below 1000 nM. At F508del, the 50% effective concentration (EC50) was below 1000 nM and the Emax is above 60%.

For the compound `CCc1c2nc(nc1-c1c(C)cc(C)cc1C)NS(=O)(=O)c1cccc(c1)NC(=O)c1cccc(c1)O2` [Compound 19], at F508del, the EC50 is below 1000 nM and the Emax is above 60%.

Consider `CCc1c2nc(nc1-c1ccccc1CN(C)C)NS(=O)(=O)c1cccc(c1)NC(=O)c1cccc(c1)O2` [Compound 10], for which, on F508del, the Emax was below 30%.

For the compound `Cc1cccc(C)c1-c1nc2nc(c1OC(C)C)OC[C@@H](CC(C)C)NC(=O)c1cccc(c1)S(=O)(=O)N2` [Compound 165, (11R)-6-(2,6-Dimethylphenyl)-11-isobutyl-7-isopropoxy-2,2-dioxo-9-oxa-2λ^6-thia-3,5,12,19-tetrazatricyclo[12.3.1.14,8]nonadeca-1(18),4(19),5,7,14,16-hexaen-13-one], the ring closure, yield after HPLC in data set [2] was 8%. Also, at CFTR [1], the “Ent. A Max Activity” value is listed as “+++ (+++ is >60%)” and the EC50 was below 1000 nM. For the same compound, the “Ent. B Max Activity” value at CFTR [3] was “+++ (+++ is >60%)”. On CFTR [3] (read-out: Ent. B EC50), the EC50 is below 1000 nM.

Take `CCc1c2nc(nc1-c1ccccc1C(C)C)NS(=O)(=O)c1cccc(c1)NC(=O)c1cccc(c1)O2` [Compound 16]: at CFTR [1], the “Ent. A Max Activity” value was “+++ (+++ is >60%)” and the EC50 is below 1000 nM. Besides, at F508del, the EC50 is below 1000 nM and the Emax is above 60%.

In the case of `CCc1c2nc(nc1-c1c(C)cccc1C)NS(=O)(=O)c1cccc(c1)NC(=O)c1cccc(c1)O2` [Compound 4, 5-(2,6-Dimethylphenyl)-4-ethyl-9,9-dioxo-2-oxa-9λ^6-thia-6,8,15,23-tetrazatetracyclo[15.3.1.13,7.110,14]tricosa-1(21),3,5,7(23),10,12,14(22),17,19-nonaen-16-one], on CFTR [1], the “Ent. A Max Activity” value is on record as “+++ (+++ is >60%)” and the EC50 was in the range of 1000 to 3000 nM. On F508del, the EC50 is below 1000 nM and the Emax was above 60%.

In the case of `Cc1ccc2cc1Oc1nc(nc(-c3c(C)cccc3C)c1Cl)NS(=O)(=O)c1cccc(c1)NC2=O` [Compound 8], on F508del, the EC50 was below 1000 nM and the Emax was above 60%.

Consider `CCc1c2nc(nc1-c1ccc([S+](C)[O-])cc1)NS(=O)(=O)c1cccc(c1)NC(=O)c1cccc(c1)O2` (centres unmarked) [Compound 18], for which the Emax at F508del is below 30%.

For `CCc1c2nc(nc1-c1c(C)c(C)c(C)c(C)c1C)NS(=O)(=O)c1cccc(c1)NC(=O)c1cccc(c1)O2` [Compound 2, 4-Ethyl-9,9-dioxo-5-(2,3,4,5,6-pentamethylphenyl)-2-oxa-9λ^6-thia-6,8,15,23-tetrazatetracyclo[15.3.1.13,7.110,14]tricosa-1(21),3,5,7(23),10,12,14(22),17,19-nonaen-16-one], on F508del, the EC50 is below 1000 nM and the Emax was above 60%.

For the compound `CCc1c2nc(nc1-c1ccccc1C1CCC1)NS(=O)(=O)c1cccc(c1)NC(=O)c1cccc(c1)O2` [Compound 1, 5-(2-Cyclobutylphenyl)-4-ethyl-9,9-dioxo-2-oxa-9λ^6-thia-6,8,15,23-tetrazatetracyclo[15.3.1.13,7.110,14]tricosa-1(21),3,5,7(23),10,12,14(22),17,19-nonaen-16-one], at CFTR [1], the “Ent. A Max Activity” value is listed as “++ (++ is 30-60%)” and the EC50 was below 1000 nM. For the same compound, at F508del, the EC50 was below 1000 nM and the Emax was above 60%.

As for `CCc1c2nc(nc1-c1ccccc1OC(C)C)NS(=O)(=O)c1cccc(c1)NC(=O)c1cccc(c1)O2` [Compound 29], at CFTR [1], the “Ent. A Max Activity” value is listed as “+ (+ is <30%)”. At F508del, the EC50 was below 1000 nM and the Emax is above 60%.

For the origin of these results see US20230374038A1, “MODULATORS OF CYSTIC FIBROSIS TRANSMEMBRANE CONDUCTANCE REGULATOR” (VERTEX PHARMACEUTICALS INCORPORATED, priority 2020, published 2023).
